These results are taken from patent US6075018A, “1-[2-(substituted vinyl)]-3,4-dihydro-4-dihydro-5H-2,3-benzodiazepine derivatives” (priority 1995, dated 2000).

In data set [1] the test system is mice. In words: Acute toxicity (dead/treated animals). The format is in vivo. Here is the method:
The SMA inhibiting effect and the acute toxicity data (dead/treated animals, shown in brackets) of the new compounds are provided in Table II.
The experiments were performed according to the method of S.Irwin [Psychopharm. 13, 222 (1968)].

Data set [2] deals with hippocampal CA1 field potentials (glutamate acting mainly through AMPA receptors). The experiment in a line: Inhibition of CA1 field potentials in hippocampal slices (glutamatergic transmission), method of Tarnawa et al. The following applies: for Inhibition (%) 30 minutes after drug administration / Inhibition (%) 60 minutes after drug administration / Inhibition (%) after 30 minutes wash-out / efficacy compared to GYKI-52466: 50 μM; for Inhibition (%) after 30 minutes wash-out: *p < 0.05 compared to the 60 minutes value; for duration of action compared to known molecules / GYKI-52466 / efficacy compared to GYKI-52466: hippocampal slices; for effect of 30 minutes wash-out on the inhibition: wash-out lasting 30 minutes vs preceding 60 minutes incubation. Details: species or system rat. Here is the method: The effects of the compounds on the glutamatergic transmission were studied in hippocampal slices applying the method of Tarnawa et al. (Acta Physiol. Hung., 79, 163, 1992). 400 μm thick slices were prepared from rat brain and maintained in a chamber of interface type under simulated […] conditions. The Schaffer collaterals were stimulated and field potentials were recorded from the pyramidal cells of the hippocampal CA1 region. The neurotransmitter involved in this process is glutamate acting mainly through AMPA receptors.

In data set [3] the test system is stereotypy induced by amphetamine. The experiment in a line: Potentiation of the stereotypy induced by amphetamine, scale of Constall and Naylor. It is filed as in vivo. The following applies: ip; 10 mg/kg i.p. + amphetamine 3 mg/kg s.c. Here is the method: The potentiation of the stereotypy evoked by amphetamine was evaluated according to the scale of Constall and Naylor (Eur. J. Pharmacol. 18, 95, 1972).
*10 mg/kg i.p. + amphetamine 3 mg/kg s.c.

In data set [4] the test system is convulsions evoked by pentetrazole. The experiment in a line: Inhibition of pentetrazole-evoked convulsions, method of Goodmann et al. The following applies: Mus musculus, ip; mice, 30 mg/kg i.p.; 50 mg/kg i.v. pentetrazole. It is filed as in vivo. Here is the method: The compounds of general formula (I) exert a moderate anticonvulsive effect, too. This latter was measured in mice applying the method of Goodmann et al.[J. Pharmacol. Exp. Ther. 106, 319, (1952)]. The convulsions evoked by 50 mg/kg i.v. of pentetrazole were inhibited by 30-40% and 50-55% after the i.p. administration of 30 mg/kg of the compounds of Examples 10., 11., 13., 19., 28., 35, 40., and Examples 34 and 38, respectively.

Each structure is given as a SMILES string.

In the case of `COc1cc2c(cc1OC)C(/C=C/c1ccc3c(c1)OCO3)=NNC(C)C2` (centres unmarked) [Example 3], the “acute toxicity (dead/treated animals)” value in data set [1] (i.p. 300 mg/kg) and in data set [1] (p.o. 1000 mg/kg) was 0/5 throughout.
Regarding `COc1cc2c(cc1OC)C(/C=C/c1ccc(NC(C)=O)cc1)=NN(C(C)=O)C(C)C2` (centres unmarked) [Example 39, 1-(4-Acetylaminostyryl)-3-acetyl-4-methyl-7,8-dimethoxy-3,4-dihydro-5H-2,3-benzodiazepine], in data set [2], the “Inhibition (%) 30 minutes after drug administration” value (from here on “Inhibition (%) 30 minutes”) worked out at 85.3 ± 15.09%, the “Inhibition (%) 60 minutes after drug administration” value (“Inhibition (%) 60 minutes” below) came to 100 ± 0%, the “Inhibition (%) after 30 minutes wash-out” value is on record as 97.5 ± 0.98% and the “duration of action compared to known molecules / GYKI-52466” value is “surpass that of GYKI-52466”. Further, in data set [2], the “efficacy compared to GYKI-52466” value was “at least equal efficacy to the molecule GYKI-52466” and the “effect of 30 minutes wash-out on the inhibition” value is “not able to diminish the effect”. Further, the change in vivo at 10 mg/kg in data set [3] amounted to 113%.
Regarding `CCC1c2cc(OC)c(OC)cc2C(/C=C/c2ccc([N+](=O)[O-])cc2)=NNC1C` (centres unmarked) [Example 26, 1-(4-Nitrostyryl)-4-methyl-5-ethyl-7,8-dimethoxy-3,4-dihydro-5H-2,3-benzodiazepine], the “acute toxicity (dead/treated animals)” value in data set [1] (i.p. 300 mg/kg) and in data set [1] (p.o. 1000 mg/kg) was 0/5 in each case.
On to `COc1cc2c(cc1OC)C(/C=C/c1ccc(N)cc1)=NNC(C)C2` (centres unmarked) [Example 33, 1-(4-Aminostyryl)-4-methyl-7,8-dimethoxy-3,4-dihydro-5H-2,3-benzodiazepine], for which the change in vivo at 10 mg/kg in data set [3] turned out to be 202%.
With `COc1cc2c(cc1OC)C(c1cccc(Cl)c1)=NN=C(C)C2` [Girisopam, 1-(3-chlorophenyl)-4-methyl-7,8-dimethoxy-5H-2,3-benzodiazepine, reference compound], the “acute toxicity (dead/treated animals)” value in data set [1] (i.p. 300 mg/kg) is 0/6.
On to `COc1ccc(/C=C/C2=NN(C(C)=O)C(C)Cc3cc(OC)c(OC)cc32)c(OC)c1` (centres unmarked) [Example 21, 1-(2,4-Dimethoxystyryl)-3-acetyl-4-methyl-7,8-dimethoxy-3,4-dihydro-5H-2,3-benzodiazepine], for which, in data set [2], the “Inhibition (%) 30 minutes” value worked out at 16.1 ± 13.4%, the “Inhibition (%) 60 minutes” value is given as 33.7 ± 7.60% and the “Inhibition (%) after 30 minutes wash-out” value is 61.1 ± 4.56%.
Turning to `COc1ccc(/C=C/C2=NNC(C)Cc3cc4c(cc32)OCO4)cc1OC` (centres unmarked) [Example 1, 1-(3,4-Dimethoxystyryl)-4-methyl-7,8-methylenedioxy-3,4-dihydro-5H-2,3-benzodiazepine], the “acute toxicity (dead/treated animals)” value in data set [1] (i.p. 300 mg/kg) and in data set [1] (p.o. 1000 mg/kg) was 0/5 in each case.
A word on the inhibition in vivo: it is the change of the read-out against control, counted positive when it falls. A high value points to a response far below the control. As to `COc1cc2c(cc1OC)C(/C=C/c1cccc(O)c1)=NNC(C)C2` (centres unmarked) [Example 11], the inhibition in vivo at 30 mg/kg in data set [4] lay within 30 to 40%.
In the case of `COc1cc2c(cc1OC)C(/C=C/c1cccc(OC)c1OC)=NN(C(C)=O)C(C)C2` (centres unmarked) [Example 22, 1-(2,3-Dimethoxystyryl)-3-acetyl-4-methyl-7,8-dimethoxy-3,4-dihydro-5H-2,3-benzodiazepine], in data set [1] (i.p. 300 mg/kg), the “acute toxicity (dead/treated animals)” value is reported as 1/5. Further, in data set [2], the “Inhibition (%) 30 minutes” value came to 4.7 ± 0.84%, the “Inhibition (%) 60 minutes” value amounted to 37.0 ± 9.19% and the “Inhibition (%) after 30 minutes wash-out” value amounted to 74.3 ± 11.53%.
In the case of `CCC1c2cc(OC)c(OC)cc2C(/C=C/c2ccc(N)cc2)=NNC1C` (centres unmarked) [Example 35, 1-(4-Aminostyryl)-4-methyl-5-ethyl-7,8-dimethoxy-3,4-dihydro-5H-2,3-benzodiazepine], the inhibition in vivo at 30 mg/kg in data set [4] fell in the range of 30 to 40%.
As for `COc1cc2c(cc1OC)C(/C=C/c1ccccc1Br)=NNC(C)C2` (centres unmarked) [Example 14], the change in vivo at 10 mg/kg in data set [3] turned out to be 113%.
For `COc1cc2c(cc1OC)C(/C=C/c1ccccc1)=NN(C(C)=O)C(C)C2` (centres unmarked) [Example 20, 1-Styryl-3-acetyl-4-methyl-7,8-dimethoxy-3,4-dihydro-5H-2,3-benzodiazepine], in data set [1] (i.p. 300 mg/kg), the “acute toxicity (dead/treated animals)” value is 1/5.
Turning to `CC1Cc2cc3c(cc2C(/C=C/c2ccccc2)=NN1)OCO3` (centres unmarked) [Example 27, 1-Styryl-4-methyl-7,8-methylenedioxy-3,4-dihydro-5H-2,3-benzodiazepine], the “acute toxicity (dead/treated animals)” value in data set [1] (i.p. 300 mg/kg) is reported as 0/5. The change in vivo at 10 mg/kg in data set [3] amounted to 183%.
Turning to `CCOc1cc2c(cc1OCC)C(/C=C/c1ccc(N(C)C)cc1)=NNC(C)C2` (centres unmarked) [Example 10], the inhibition in vivo at 30 mg/kg in data set [4] lay within 30 to 40%. For the same compound, the change in vivo at 10 mg/kg in data set [3] is 176%.
As for `CC(=O)Nc1ccc(/C=C/C2=NN(C(C)=O)C(C)Cc3cc4c(cc32)OCO4)cc1` (centres unmarked) [Example 40, 1-(4-Acetylaminostyryl)-3-acetyl-4-methyl-7,8-methylenedioxy-3,4-dihydro-5H-2,3-benzodiazepine], the inhibition in vivo at 30 mg/kg in data set [4] lay in the range of 30 to 40%. Besides, in data set [2], the “Inhibition (%) 30 minutes” value is recorded as 14.8 ± 7.10%, the “Inhibition (%) 60 minutes” value came to 25.8 ± 3.04% and the “Inhibition (%) after 30 minutes wash-out” value was determined as 35.4 ± 2.67%. In data set [3], the change in vivo at 10 mg/kg came out at 99.7%.
As for `COc1cc2c(cc1OC)C(/C=C/c1ccc(Cl)c(Cl)c1)=NNC(C)C2` (centres unmarked) [Example 28, 1-(3,4-Dichlorostyryl)-4-methyl-7,8-dimethoxy-3,4-dihydro-5H-2,3-benzodiazepine], the inhibition in vivo at 30 mg/kg in data set [4] fell in the range of 30 to 40%. Also, the change in vivo at 10 mg/kg in data set [3] worked out at 92.5%.
In turn, `COc1ccc(/C=C/C2=NN(C(C)=O)C(C)Cc3cc4c(cc32)OCO4)c(OC)c1` (centres unmarked) [Example 19, 1-(2,4-Dimethoxystyryl)-3-acetyl-4-methyl-7,8-methylenedioxy-3,4-dihydro-5H-2,3-benzodiazepine] gave an inhibition in vivo at 30 mg/kg in data set [4] of 30 to 40%.
On to `COc1cc2c(cc1OC)C(/C=C/c1ccc(N(C)C)cc1)=NNC(C)C2` (centres unmarked) [Example 7], for which the change in vivo at 10 mg/kg in data set [3] came out at 90.2%.
As for `CC1Cc2cc3c(cc2C(/C=C/c2ccc(N)cc2)=NN1)OCO3` (centres unmarked) [Example 34, 1-(4-Aminostyryl)-4-methyl-7,8-methylenedioxy-3,4-dihydro-5H-2,3-benzodiazepine], the inhibition in vivo at 30 mg/kg in data set [4] fell in the range of 50 to 55%. The change in vivo at 10 mg/kg in data set [3] worked out at 92%.
On to `COc1cccc(/C=C/C2=NN(C(C)=O)C(C)Cc3cc4c(cc32)OCO4)c1OC` (centres unmarked) [Example 23, 1-(2,3-Dimethoxystyryl)-3-acetyl-4-methyl-7,8-methylenedioxy-3,4-dihydro-5H-2,3-benzodiazepine], for which the “acute toxicity (dead/treated animals)” value in data set [1] (i.p. 300 mg/kg) and in data set [1] (p.o. 1000 mg/kg) was 0/5 in each case.
Regarding `COc1ccc(/C=C/C2=NNC(C)Cc3cc4c(cc32)OCO4)cc1C(C)C` (centres unmarked) [Example 13], the inhibition in vivo at 30 mg/kg in data set [4] was 30 to 40%.
Take `CC1Cc2cc3c(cc2C(/C=C/c2ccc(N(C)C)cc2)=NN1)OCO3` (centres unmarked) [Example 9]: in data set [3], the change in vivo at 10 mg/kg turned out to be 141%.
As for `CCC1c2cc(OC)c(OC)cc2C(/C=C/c2ccc(N)cc2)=NN(C(C)=O)C1C` (centres unmarked) [Example 38, 1-(4-Aminostyryl)-3-acetyl-4-methyl-5-ethyl-7,8-dimethoxy-3,4-dihydro-5H-2,3-benzodiazepine], the inhibition in vivo at 30 mg/kg in data set [4] fell in the range of 50 to 55%.
On to `COc1cc2c(cc1OC)C(/C=C/c1ccc([N+](=O)[O-])cc1)=NN(C(C)=O)C(C)C2` (centres unmarked) [Example 30, 1-(4-Nitrostyryl)-3-acetyl-4-methyl-7,8-dimethoxy-3,4-dihydro-5H-2,3-benzodiazepine], for which the change in vivo at 10 mg/kg in data set [3] is 100%.
Turning to `CCC1c2cc3c(cc2C(/C=C/c2ccc(NC(C)=O)cc2)=NN(C(C)=O)C1C)OCO3` (centres unmarked) [Example 41, 1-(4-Acetylaminostyryl)-3-acetyl-4-methyl-5-ethyl-7,8-methylenedioxy-3,4-dihydro-5H-2,3-benzodiazepine], in data set [1] (i.p. 300 mg/kg), the “acute toxicity (dead/treated animals)” value is on record as 0/5. Besides, the “acute toxicity (dead/treated animals)” value in data set [1] (p.o. 1000 mg/kg) is reported as 0/5. Also, in data set [2], the “Inhibition (%) 30 minutes” value was determined as 79.5 ± 10.10%, the “Inhibition (%) 60 minutes” value turned out to be 100 ± 0%, the “Inhibition (%) after 30 minutes wash-out” value came to 98.6 ± 2.67% and the “duration of action compared to known molecules / GYKI-52466” value is listed as “surpass that of GYKI-52466”. In data set [2], the “efficacy compared to GYKI-52466” value is “at least equal efficacy to the molecule GYKI-52466” and the “effect of 30 minutes wash-out on the inhibition” value is listed as “not able to diminish the effect”.
For the compound `CC1Cc2cc3c(cc2C(/C=C/c2ccc4c(c2)OCO4)=NN1)OCO3` (centres unmarked) [Example 8], the change in vivo at 10 mg/kg in data set [3] came out at 113%.
